{"source": "patent US8901276B2", "about": "“Peptide reagents and methods for detection of colon dysplasia” (The Regents of the University of Michigan, priority 2010, dated 2014)", "key": {"[1]": {"tested_on": "normal colonic mucosa", "experiment": "In vivo imaging with multi-spectral scanning fiber endoscope, normal mucosa", "set-up": "species or system mice", "details": "mouse", "method": "(§1) The CPC;Apc mice were first imaged with white light using a non-scanning endoscope (Karl Storz Veterinary Endoscopy, Goleta, Calif.) to assess for the presence of colonic adenomas that have a size between ˜0.5 to 4 mm in diameter. Any adenomas were rinsed of debris including stool and mucous, by delivering tap water through a 3 Fr instrument channel. Then, the fluorescent-labeled peptides were delivered topically at a concentration of 100 μM in 1×PBS in a volume of 1 mL to the distal 4 cm of the colon and rectum. The peptides were incubated for 5 minutes and then the unbound peptides were rinsed away with tap water 3 times. The colon was inspected for any residual peptide, and when clean, the colon was insufflated with air and imaged with the multi-spectral scanning fiber endoscope."}, "[2]": {"tested_on": "colonic adenomas", "experiment": "In vivo imaging with multi-spectral scanning fiber endoscope", "set-up": "species or system CPC; Apc mice", "details": "for binding to colonic dysplasia/adenomas on fluorescence images / Average T/B: 100 μM topical, 5 min; for Average T/B: Multi-Spectral Scanning Fiber Endoscopy Results, mean ± SD; for range of T/B ratios: dysplasia versus normal appearing adjacent colonic mucosa", "source_text": "A scanning fiber endoscope system was adapted for fluorescence detection in three channels (RGB) using excitation at 440 (NDHB510APA, Nichia, Tokyo, Japan), 532 (FTEC532-V10TA0, Blue Sky Research, Milpitas, Calif.) and 635 (FMXL635-017TA0B, Blue Sky Research) nm using an RGB coupler (OZ Optics, Ottawa, Canada). The three laser sources are delivered simultaneously into the scanning fiber, and focused to the same point on the illumination plane using a custom lens assembly, as shown in the schematic in FIG. 2A. The laser power coming out of the distal tip of the endoscope is <2 mW for each channel, a level consistent with a non-significant risk (NSR) determination by the U.S. Food and Drug Administration (FDA, 21 CFR 812) for future human clinical studies. The amplitude of the spiral scanner was reduced to achieve a divergence angle of 70 deg (max 100 deg) to minimize noise in the periphery of the image. Fluorescence is collected by a ring of 12 step-index plastic optical fibers (POF) with numerical aperture (N.A.) of 0.63 and outer diameter of 250 μm (Toray Industries Inc, Tokyo, Japan).\nas §1\nVideos collected during endoscopy were exported as avi video files and converted into sequential png images using Apple QuickTime. White light and fluorescence images for each adenoma were analyzed in NIH Image J. The white light image was utilized to draw a region of interest (ROI) around the adenoma or adjacent normal appearing colonic mucosa which was then superimposed onto the fluorescence image. The mean fluorescence intensities were calculated for each ROI, and a target/background (T/B) ratio was calculated for each colonic adenoma and compared to the surrounding normal appearing mucosa."}, "[3]": {"tested_on": "human colon surgical specimens (normal mucosa, dysplastic adenomas, carcinoma)", "experiment": "Binding of synthetic peptides to human surgical specimens of colon cancer (Example 9)", "details": "10 μM, 15 min, RT", "method": "Fresh frozen sections from human surgical specimens were cryosectioned with […] and used to localize peptide binding. The sectioned tissues were air dried and washed with PBS 1×. Sections were incubated with FITC labeled peptides (10 μM) for 15 min at RT. The sections were washed three times each for 1 min in PBS and fixed with 4% paraformaldehyde for 10 min. After fixing, the sections were washed again (1×) and mounted with ProLong® Gold reagent with DAPI (Invitrogen, Carlsbad, Calif.). The sections were imaged under a confocal microscope ([…]). All surgical specimens were obtained from the tissue procurement core of University of Michigan with approval from the Institutional Review Board (IRB)."}, "[4]": {"tested_on": "HT29 cells", "experiment": "Competitive inhibition assay (bound phage counts)", "type": "cell-based, human", "details": "up to 200 μM unlabeled peptide", "method": "Bound phage counts were performed to observe the competitive inhibition effect of the synthetic candidate heptapeptide with its representative phage counterpart in triplicate. HT29 cells (5×10^6) were detached with enzyme free cell dissociation buffer and blocked with 1% BSA containing PBS for 30 min at 4° C. The cells were washed and incubated with phage (2×10^11) for 15 min. Then, the cells were washed with PBS and immediately incubated with different concentrations of unlabeled peptide ranging from 10 to 200 μM for an additional 15 min. Cells were washed 3× and the bound phages were recovered as described above in bound phage counts. The bound phages were then tittered and counted, and the relative inhibition rate was calculated. The inhibition activity of no-insert WT phage by synthetic candidate peptide and phage with unrelated synthetic control peptide were used as negative controls."}, "[5]": {"tested_on": "Hs738.St/Int. cells", "experiment": "Flow cytometry of FITC-labeled peptides", "type": "cell-based, human", "details": "10 μM, 60 min, 4° C.", "method": "(§2) Preferential binding of FITC-Peptide 2 to target cells was validated using flow cytometry. HT29 and Hs738.St/Int. (˜2×10^5) cells were grown, detached, and blocked as described above. These cells were incubated with the FITC-Peptide 2 or -Control peptide 2 (10 μM) for 60 min at 4° C. with continuous agitation. The cells were then washed (3×) with cold PBST followed by immediate fixing for 10 min. with 4% paraformaldehyde. The cells were washed again (1×) with PBS and resuspended in 1 mL of PBS. Flow cytometry was performed using FACSDiVa (BD® LSRII, BD Biosciences, San Jose, Calif.) and analyzed using Flowjo analysis program (Tree Star Inc., Ashland, Oreg.).\n(§3) Preferential binding of the candidate peptide labeled with 5-FITC to the target and control cells was also validated using flow cytometry. HT29 and Hs738.St/Int. (˜2×10^5) cells were grown, detached, and blocked, as described above. These cells were incubated with the 5-FITC labeled candidate or control peptide (10 μM) for 60 min at 4° C. with continuous agitation. The cells were then washed 3× with cold PBST followed by immediate fixation for 10 min with 4% paraformaldehyde. The cells were washed again with PBS and resuspended in 1 mL of PBS. Flow cytometry was performed using FACSDiVa (BD® LSRII, BD Biosciences, San Jose, Calif.) and analyzed using Flowjo analysis program (Tree Star Inc. Ashland, Oreg.)."}, "[6]": {"tested_on": "HT29 cells", "experiment": "Flow cytometry of FITC-labeled peptides", "type": "cell-based, human", "details": "10 μM, 60 min, 4° C., FITC channel", "method": "as §2, §3"}, "[7]": {"tested_on": "Hs738.St/Int. cells", "experiment": "Fluorescence microscopy of FITC-labeled peptides", "type": "cell-based, human", "details": "10 μM, 15 min", "method": "(§4) Preferential binding of the FITC-Peptide 2 and FITC-Control peptide 2 to target and non-target cells was also validated via fluorescence microscopy. HT29 and Hs738.St/Int. cells were grown in 22 mm2 cover slips with ˜80% confluence. Blocking of non-specific binding was performed by adding PBS/0.5% BSA for 30 min. The cells were then incubated with 10 μM of FITC-Peptide 2 or FITC-Control peptide 2 either at 4 or 37° C. for 15 min followed by 1 μg/mL Hoechst dye (Sigma Aldrich, St. Louis, Mo.) along with the peptide. The cells were washed with PBS for 3 times and fixed with 4% paraformaldehyde at room temperature for 10 min. After fixation, the cells were washed again with PBS (1×) and mounted with ProLong® Gold reagent (Invitrogen, Carlsbad, Calif.) and the fluorescence images were acquired with Leica Confocal system. (Leica Microsystems GMBH, Wetzlar, 35578 Germany)\n(§5) Preferential binding of the FITC-labeled candidate and control peptides to the target and non-target cells was further validated via fluorescence microscopy. HT29 and Hs738.St/Int. cells were grown on cover slips to ˜80% confluence. Blocking of non-specific binding was performed by adding PBS/0.5% BSA for 30 min. The cells were then incubated with 10 μM of 5-FITC-labeled candidate or control peptide at either 4 or 37° C. for 15 min followed by staining with 1 μg/mL Hoechst dye (Sigma Aldrich, St. Louis, Mo.) along with the peptide. The cells were washed 3× with PBS and fixed with 4% paraformaldehyde at RT for 10 min. After fixation, the cells were washed again with PBS and mounted with ProLong Gold reagent (Invitrogen, Carlsbad, Calif.) and fluorescence images were collected with confocal microscopy (Leica TCS SP5 Microsystems, Bannockburn, Ill.)."}, "[8]": {"tested_on": "human EMR specimens (normal mucosa, polypoid and non-polypoid dysplasia)", "experiment": "Stereomicroscopic validation on EMR specimens", "details": "10 μmol/L, 5 min, mean±SEM", "source_text": "Binding of the candidate or control peptide to the dysplasia on freshly resected human specimens via endoscopic mucosal resection (EMR) was validated on fluorescence stereomicroscopy. Patients with previously diagnosed polypoid and non-polypoid dysplasia who were referred for EMR were recruited. Institutional review board approval was obtained from the VA Palo Alto Health Care System, and informed consent was acquired. After resection, the specimens were rinsed in PBS 3× to remove debris and mucous. An autofluorescence image was acquired before incubating with the peptide. Then, specimens were incubated with either the FITC-labeled candidate or control peptide at a concentration of 10 μmol/L for 5 min. The unbound peptide was rinsed off with PBS 3×. The mucosal surface of the specimen was oriented face up, and a dab of ink was applied to the upper border as a landmark to register the white light and fluorescence images with histology. A white light image was collected from the specimen with and without an overlying transparent grid that contains squares with dimensions of 1×1 mm^2. Fluorescence images were collected at 500 milliseconds per frame (with the overlying grid removed) using a stereomicroscope (Olympus SZX-16 equipped with Rolera camera; Olympus Corp, Tokyo, Japan) using 477 to 500 nm excitation and 500 to 630 nm emission. A correction to the fluorescence images was performed because the intensity at the center of the image is greater than that in the periphery due to differences in distance. A fluorescence image was collected from a solution of 10 μM FITC in a plate to provide a uniform target for calibration, allowing for quantitative analysis over the entire field of view. After the fluorescence intensities were corrected, lines along the length of the specimen spaced by 2-mm intervals in each image were identified using the grid from the white light image. The mean intensity from each 1×1 mm^2 interval along this length of tissue was calculated using Matlab and compared with histology. Histopathologic interpretation was performed by a gastrointestinal pathologist (HA) who classified the specimens stained with H&E as normal colonic mucosa, dysplasia, or adenocarcinoma. The histopathologic evaluation of the EMR specimens was conducted at VA Palo Alto Health Care System (AM) and classified as either dysplasia or normal mucosa."}, "[9]": {"tested_on": "human colonic mucosa sections (normal, dysplasia, adenocarcinoma)", "experiment": "Peptide immunohistochemistry on frozen sections (Example 11)", "details": "10 μM, 15 min, RT", "method": "All specimens were obtained with approval from the University of Michigan Institutional Review Board (IRB). Freshly resected specimens of human colonic mucosa were frozen in OCT and sectioned with 10 μm thickness. The sections were then air dried, washed with PBS, and incubated with the FITC-labeled peptides at a concentration of 10 μM for 15 min at RT. The sections were washed 3× for 1 min in PBS and fixed with 4% paraformaldehyde for 10 min. After fixation, the sections were washed again and mounted with ProLong Gold reagent with DAPI (Invitrogen, Carlsbad, Calif.). The sections were imaged under a confocal microscope (Leica TCS SP5 Microsystems, Bannockburn, Ill.). Adjacent sections were sent for routine histology. The intensity for each image was calculated using Matlab (Mathworks, Natick, Mass.)."}, "[10]": {"tested_on": "HT29 cells", "experiment": "Fluorescence microscopy of FITC-labeled peptides", "type": "cell-based, human", "details": "10 μM, 15 min, 4° C.", "method": "as §4\nIn addition, the ability of the FITC-Peptide 2 peptide to internalize within the HT29 cells was tested. HT29 cells were incubated for 15 min. at either 4° C. or 37° C. in the presence of 10 μM FITC-Peptide 2.\nas §5"}}, "note": "Where no end group is shown, it is not given here. The star is where a group is joined. FITC = O=C1OC2(c3ccc(O)cc3Oc3cc(O)ccc32)c2ccc(NC(=S)*)cc21"}
{"substance": "AKPGYLS-TAMRA: AKPGYLS labeled with 5-Carboxytetramethylrhodamine (TAMRA) (also: TAMRA label, site not given here)", "values": [{"measurement": "signal on normal colonic mucosa", "setting": "[1]", "result": "minimal signal"}, {"measurement": "binding to colonic dysplasia/adenomas on fluorescence images", "setting": "[2]", "result": "clearly displayed specific binding"}, {"measurement": "Average T/B", "setting": "[2]", "result": "1.67±0.12"}, {"measurement": "range of T/B ratios", "setting": "[2]", "result": "1.50-1.78"}]}
{"substance": "KCCFPAQ-DEAC: KCCFPAQ labeled with 7-Diethylaminocoumarin-3-carboxylic acid (DEAC) (cysteine pairing not given here; also: DEAC label, place not given here)", "values": [{"measurement": "signal on normal colonic mucosa", "setting": "[1]", "result": "minimal signal"}, {"measurement": "binding to colonic dysplasia/adenomas on fluorescence images", "setting": "[2]", "result": "clearly displayed specific binding"}, {"measurement": "Average T/B", "setting": "[2]", "result": "1.71±0.19"}, {"measurement": "range of T/B ratios", "setting": "[2]", "result": "1.50-2.06"}]}
{"substance": "GGGAGGGAGGGK (FITC)-NH2 (GGGAGGGAGGGK(FITC)-NH2; N-terminus assumed; SMILES C[C@H](NC(=O)CNC(=O)CNC(=O)CN)C(=O)NCC(=O)NCC(=O)NCC(=O)N[C@@H](C)C(=O)NCC(=O)NCC(=O)NCC(=O)N[C@@H](CCCCNC(=S)Nc1ccc2c(c1)C(=O)OC21c2ccc(O)cc2Oc2cc(O)ccc21)C(N)=O) [FITC-Control peptide 2, glycine/alanine control peptide, reference compound]", "values": [{"measurement": "binding to specimens classified from normal to carcinoma", "setting": "[3]", "result": "not able to bind with any of the specimens"}, {"measurement": "inhibition of KCCFPAQ phage binding to HT29 cells", "setting": "[4]", "result": "No inhibition"}, {"measurement": "binding to Hs738.St/Int. cells on flow cytometry", "setting": "[5]", "result": "bound minimally"}, {"measurement": "total HT29 cell population bound", "setting": "[6]", "result": 18.6, "unit": "%"}, {"measurement": "total HT29 cell population bound", "setting": "[6]; listed as control peptide", "result": 2.3, "unit": "%"}, {"measurement": "binding to Hs738.St/Int. cells on microscopy", "setting": "[7]", "result": "did not bind"}, {"measurement": "fluorescence intensity on stereomicroscopy", "setting": "[8]; non-polypoid dysplasia", "result": "21.8±4.1", "unit": "AU"}, {"measurement": "fluorescence intensity on stereomicroscopy", "setting": "[8]; normal mucosa", "result": "16.5±2.5", "unit": "AU"}, {"measurement": "fluorescence intensity on stereomicroscopy", "setting": "[8]; polypoid dysplasia", "result": "14.0±3.0", "unit": "AU"}, {"measurement": "staining of any specimen (normal, dysplasia, adenocarcinoma)", "setting": "[9]", "result": "did not stain any of the specimens"}, {"measurement": "binding to the surface of HT29 cells", "setting": "[10]", "result": "did not bind"}]}
